According to patent US20230295255A1, “ANNEXIN A1-DERIVED POLYPEPTIDE ANALOGUES” (Reso Ther Pharma A/S, priority 2020, published 2023):
Ends that are not written are not given here.

B1: AnxA1: full length Annexin A1 protein (Homo sapiens, SEQ ID NO:1) (protein, listed as Homo Sapiens)
chain: MAMVSEFLKQAWFIENEEQEYVQTVKSSKGGPGSAVSPYPTFNPSSDVAALHKAIMVKGVDEATIIDILTKRNNAQRQQIKAAYLQETGKPLDETLKKALTGHLEEVVLALLKTPAQFDADELRAAMKGLGTDEDTLIEILASRTNKEIRDINRVYREELKRDLAKDITSDTSGDFRNALLSLAKGDRSEDFGVNEDLADSDARALYEAGERRKGTDVNVFNTILTTRSYPQLRRVFQKYTKYSKHDMNKVLDLELKGDIEKCLTAIVKCATSKPAFFAEKLHQAMKGVGTRHKALIRIMVSRSEIDMNDIKAFYQKMYGISLCQAILDETKGDYEKILVALCGGN

Experiments:
[1] = Determination of terminal half times after intravenous injection in rats (plasma, LC/MS-MS); set-up: species or system Male Wistar rats; details: in vivo, rat, read-out: terminal half time (t½)
Description: Male Wistar rats (Crl:WI(Han), Charles River, Germany, weight 300 g±20 g were kept in transparent polycarbonate cages (floor area: 1500 cm^2—height: at least 21 cm) with two in each cage, males and females separated at a temperature of 21° C.±3° C. and relative humidity of 55%±15% with a 12 hours light and 12 hours darkness (Light on from 06:00 to 18:00 h). Following a minimum of five days acclimatization the animals received an intravenous injection of test item through the tail vein given over 60 seconds using a butterfly syringe with volume adjusted according to the most recent body weight data. The butterfly was flushed with 0.4 mL 0.9% NaCl immediately after injection. […]. The dose volume was 5 mL/kg body weight.
The following doses of test item was given: 0.1, 1 and 10 mg/kg in 5% glucose; 1.0 mM acetic acid. Six animals were treated on each dose level.
(§1) On the day of dosing blood samples of approximately 0.4 mL was drawn using the sublingual method. The blood was sampled into a collecting tube containing K2EDTA as anticoagulant. After collection, the collecting tube was immediately labelled and placed in ice water (sufficient to cover the blood entirely) until centrifugation. Within 20 minutes after blood sampling, blood was centrifuged for 8 minutes at 2150 G, at +4° C.). The entire plasma sample was transferred to Eppendorf microcentrifuge tubes (Polypropylene tubes with Eppendorf Safe-Lock lid, Sigma, Denmark). Within 30 minutes after centrifugation, plasma was snap frozen on dry ice and stored at −70° C. or below.
Time point for blood sampling: 2, 5, 10 and 20 min from completion of dosing.
Plasma concentration of the test item was measured by use of LC/MS-MS.

[2] = Determination of terminal half times after intravenous injection in beagle dogs (plasma, LC/MS-MS); format: in vivo; details: dog; for half-life: in vivo, intravenous, read-out: terminal half time (t½)
Description: 6 beagle dogs, 3 males and 3 females, HsdRcc:DOBE from Marshall BioResources, F-03800 Gannat, France. Age 5-6 months, weight 6-8 kg were kept 21° C.±3° C. with relative humidity of 55%±15% with 12 hours light and 12 hours darkness (Light on from 06:00 to 18:00 h). Male and females kept separate.
Following a pre-treatment period of a minimum of two weeks the animals received an intravenous injection of test item through the cephalic vein given over 5 min using a butterfly syringe with volume adjusted according to the most recent body weight data. The butterfly was flushed with 5 ml 0.9% NaCl immediately after injection. The dose volume was 5 mL/kg body weight. One male and one female were treated at each dose level.
The following doses of test item was given: 2, 6 and 10 mg/kg in 5% glucose; 1.0 mM acetic acid. One male and one female were treated on each dose level. For the control peptide the doses given were: 1, 3 and 10 mg/kg.
as §1, with “Blood samples for determination” for “On the day”, “plasma levels of test item” for “dosing blood samples”, “mL per sample” for “mL”, “from” for “using”, “contralateral cephalic vein.” for “sublingual method.”
Plasma concentration of test item and control peptide was measured by use of LC/MS-MS.

[3] = Liver injury assessment: blood levels of alanine aminotransferase (ALT) in HFD NASH model; format: in vivo, C57BL/6 mice; details: HFD mice, after 6 weeks treatment, i.p.; AnxA1 1 mg/kg/day, Test Item A 250 μg/kg/day
Description: (§2) Male C57BL/6 mice were housed (7-9/cage) in pathogen free conditions and maintained at constant room temperature (20-22° C.) with free access to water and food under a 12 h light/dark cycle (lights on at 07:00 h). […] This diet leads within 16 weeks to steatohepatitis associated with obesity and insulin resistance, which mimics what is seems in humans suffering from NASH. The control group received ad libitum normal chow for 16 weeks. The body weight for each mouse was recorded weekly by using a dedicated digital balance (each Friday afternoon—starting from 5 pm).
Liver injury was assessed before and after treatment with test compound, control compound or vehicle by evaluating blood levels of alanine aminotransferase (ALT) with a spectrophotometric kit. Blood sampling was carried out by retro-orbital bleeding.
Mice were divided in experimental groups as below: • A: Non HFD: Time control group: Had access to standard chow diet throughout the study period • B: Vehicle: Vehicle treatment group: Received HFD+Vehicle treatment (sterile saline injections) once daily • C: AnxA1: AnnexinA1 treatment group: Received HFD+Annexin A1 full-length protein at a dose of 1 mg/kg/day. • D: Test Item A: Test compound A group: Received HDF+250 μg/kg/day of Test compound A=[…] (SEQ ID NO:4); (AnxA1 (2-46 Val24Leu). […]

TNF-α = assay: Low grade inflammation: liver expression level of TNF-α by real time PCR in HFD NASH model; format: in vivo, C57BL/6 mice; details: HFD mice, AnxA1 1 mg/kg/day, Test Item A 250 μg/kg/day
Description: as §2
Low inflammation in the livers was determined by the expression level of TNF-α measured by real time PCR using a commercial available tracer.
(§3) Mice were divided in experimental groups as below: • A: Non HFD: Time control group: Had access to standard chow diet throughout the study period • B: Vehicle: Vehicle treatment group: Received HFD+Vehicle treatment (sterile saline injections) once daily • C: AnxA1: AnnexinA1 treatment group: Received HFD+Annexin A1 full-length protein at a dose of 1 mg/kg/day. • D: Test Item A: Test compound A group: Received HDF+250 μg/kg/day of Test compound A=[…] (SEQ ID NO:4); (AnxA1 (2-46 Val24Leu).
Treatment was commended following 10 weeks HFD and was given as a once daily intraperitoneal given 5 days a week (Monday-Friday) for 6 weeks. […]

[4] = Body weight and liver weight in experimental model of Nonalcoholic Steatohepatitis (HFD mice); format: in vivo, C57BL/6 mice; details: end of 6 weeks treatment, i.p. once daily 5 days a week, AnxA1 1 mg/kg/day, Test Item A 250 μg/kg/day
Description: as §2, §3
Treatment was commended following 10 weeks HFD and was given as a once daily intraperitoneal given 5 days a week (Monday-Friday) for 6 weeks. The animals were kept on HFD during the 6 weeks treatment period. […]

Molecule	half-life ([1]; 0.1 mg/kg) [min]	half-life ([1]; 1 mg/kg) [min]	half-life ([1]; 10 mg/kg) [min]	terminal half time (t½) of test item, times longer than the control peptide ([2]; single intravenous dosing)	half-life ([2]; 2 mg/kg) [min]	half-life ([2]; 6 mg/kg) [min]	half-life ([2]; 10 mg/kg) [min]	half-life ([2]; 1 mg/kg) [min]	half-life ([2]; 3 mg/kg) [min]	ALT (blood alanine aminotransferase) [3] [u/L]	Relative expression levels of TNF-α with the mean expression in group B (vehicle) set to 1 (TNF-α)	Bodyweight, mean value per group [4] [g]	Liver Weight, mean value per group [4] [g]
AMVSEFLKQAWFIENEEQEYVQTLKSSKGGPGSAVSPYPTFNPSS [Test Item A]	3.18	2.87	5.85	up to 4.8 times	9.16	19.8	28.3						
AMVSEFLKQAWFIENEEQEYVQTLKSSKGGPGSAVSPYPTFNPSSDV [control peptide, reference compound]							5.86	5.57	5.69				
B1										100	1.17±023	32.5	2.0
